Experimental data taken from patent publication US20190367516A1 (Bayer Pharma Aktiengesellschaft, priority 2015, published 2019).
Where two headings read alike, the source gives them in different places.

Biological target: T1, human M2 receptor (Homo sapiens, UniProt P08172)
T1 sequence (P08172 1-466): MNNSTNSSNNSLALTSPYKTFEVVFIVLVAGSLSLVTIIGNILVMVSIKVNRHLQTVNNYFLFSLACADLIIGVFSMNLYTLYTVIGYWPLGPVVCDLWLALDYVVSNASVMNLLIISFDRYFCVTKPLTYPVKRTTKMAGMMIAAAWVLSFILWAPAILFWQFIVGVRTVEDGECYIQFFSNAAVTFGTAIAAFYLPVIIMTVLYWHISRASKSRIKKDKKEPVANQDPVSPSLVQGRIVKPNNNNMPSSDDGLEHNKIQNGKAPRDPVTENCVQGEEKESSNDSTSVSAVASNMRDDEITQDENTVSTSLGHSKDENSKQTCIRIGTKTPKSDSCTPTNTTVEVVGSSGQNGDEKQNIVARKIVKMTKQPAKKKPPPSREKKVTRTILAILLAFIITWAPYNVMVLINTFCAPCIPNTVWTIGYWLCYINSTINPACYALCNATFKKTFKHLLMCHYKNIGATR

[1] = Receptor activity EC50, M2-GIRK1/4 activation test, acetylcholine at EC20, allosteric potency, in some cases mean values from two or more determinations
[2] = Receptor activity EC50, allosteric potency at EC20 acetylcholine, M2-GIRK1/4 reporter cells, in some cases mean of two or more determinations
[3] = read-out: Efficiency, boosting of the acetylcholine effect at EC20 acetylcholine concentration, M2-GIRK1/4 reporter cells

Row | EC50 [1] [nM] | EC50 [2] [nM] | Emax [3] [%] | SMILES | Emax (read-out: Efficiency) [%]
1 | 13 | – | – | CC(C)(C)[C@H](NC(=O)c1cn(-c2c(F)cc(F)cc2F)c2nc(N3CCNC3=O)ccc2c1=O)C(F)(F)F [Example 359, 4-Oxo-7-(2-oxoimidazolidin-1-yl)-N-[(2S)-1,1,1-trifluoro-3,3-dimethylbutan-2-yl]-1-(2,4,6-trifluorophenyl)-1,4-dihydro-1,8-naphthyridine-3-carboxamide] | –
2 | 79 | – | – | CC[C@@H](NC(=O)c1cn(-c2ccc(F)cc2F)c2nc(N3CC(C)(OC)C3)ccc2c1=O)C(F)(F)F [Example 328, 1-(2,4-Difluorophenyl)-7-(3-methoxy-3-methyazetidin-1-yl)-4-oxo-N-[(2R)-1,1,1-trifluorobutan-2-yl]-1,4-dihydro-1,8-naphthyridine-3-carboxamide] | –
3 | – | 100 | 94 | NC(=O)[C@H]1CN(c2ccc3c(=O)c(C(=O)N[C@@H](C4CC4)C(F)(F)F)cn(-c4c(F)cc(F)cc4F)c3n2)C(=O)O1 [Example 671, 7-[(5R)-5-Carbamoyl-2-oxo-1,3-oxazolidin-3-yl]-N-[(15)-1-cyclopropyl-2,2,2-trifluoroethyl]-4-oxo-1-(2,4,6-trifluorophenyl)-1,4-dihydro-1,8-naphthyridine-3-carboxamide] | –
4 | 141 | – | – | CN(C)c1ccc2c(=O)c(C(=O)NC(C)(C)C)cn(-c3ccc(F)cc3F)c2n1 [Example 43, N-tery-Butyl-1-(2,4-difluorophenyl)-7-(dimethylamino)-4-oxo-1,4-dihydro-1,8-naphthyridine-3-carboxamide] | –
5 | – | 38 | 100 | CC(C)(C)NC(=O)c1cn(-c2c(F)cc(F)cc2F)c2nc(N3C[C@@H](O)[C@H](O)C3)ccc2c1=O [Example 479, N-tert-Butyl-7-[(3R,4R)-3,4-dihydroxypyrrolidin-1-yl]-4-oxo-1-(2,4,6-trifluorophenyl)-1,4-dihydro-1,8-naphthyridine-3-carboxamide] | –
6 | – | 30 | 91 | O=C(N[C@@H](C1CC1)C(F)(F)F)c1cn(-c2c(F)cc(F)cc2F)c2nc(N3CC(CO)(CO)C3)ccc2c1=O [Example 502, 7-[3,3-Bis(hydroxymethyl)azetidin-1-yl]-N-[(1S)-1-cyclopropyl-2,2,2-trifluoroethyl]-4-oxo-1-(2,4,6-trifluorophenyl)-1,4-dihydro-1,8-naphthyridine-3-carboxamide] | –
7 | 17 | – | – | CN(C)c1ccc2c(=O)c(C(=O)NC34CCC(C)(CC3)CC4)cn(-c3ccc(F)cc3F)c2n1 [Example 42, 1-(2,4-Difluorophenyl)-7-(dimethylamino)-N-(4-methylbicyclo[2.2.2]oct-1-yl)-4-oxo-1,4-dihydro-1,8-naphthyridine-3-carboxamide] | –
8 | 17 | – | – | CC[C@@H](NC(=O)c1cn(-c2ccc(F)cc2F)c2nc(N3CC(C)CC3=O)ccc2c1=O)C(F)(F)F (single isomer, unassigned) [Example 302] | –
9 | 61 | – | – | CC[C@H](NC(=O)c1cn(-c2c(F)cccc2F)c2nc(N3C[C@@H](O)[C@H](O)C3)ccc2c1=O)C(F)(F)F [Example 348, 1-(2,6-Difluorophenyl)-7-[(3R,4R)-3,4-dihydroxypyrrolidin-1-yl]-4-oxo-N-[(2S)-1,1,1-trifluorobutan-2-yl]-1,4-dihydro-1,8-naphthyridine-3-carboxamide] | –
10 | – | 100 | 91.5 | CC1(NC(=O)c2cn(-c3c(F)cc(F)cc3F)c3nc(N4CCNC4=O)ccc3c2=O)CC(F)(F)C1 [Example 656, N-(3,3-Difluoro-1-methylcyclobutyl)-4-oxo-7-(2-oxoimidazolidin-1-yl)-1-(2,4,6-trifluorophenyl)-1,4-dihydro-1,8-naphthyridine-3-carboxamide] | –
11 | – | 5 | 100 | CC(C)C[C@H](NC(=O)c1cn(-c2c(F)cc(F)cc2F)c2nc(N3C[C@@H](O)CC3=O)ccc2c1=O)C(F)(F)F [Example 525, 7-[(4S)-4-Hydroxy-2-oxopyrrolidin-1-yl]-oxo-N-[(2S)-1,1,1-trifluoro-4-methylpentan-2-yl]-1-(2,4,6-trifluorophenyl)-1,4-dihydro-1,8-naphthyridine-3-carboxamide] | –
12 | – | 15 | 100 | CC(NC(=O)c1cn(-c2c(F)cc(F)cc2F)c2nc(N3C[C@@H](O)[C@H](O)C3)ccc2c1=O)(C1CC1)C(F)(F)F (mixture of isomers) [Example 441, N-[2-Cyclopropyl-1,1,1-trifluoropropan-2-yl]-7-[(3R,4R)-3,4-dihydroxypyrrolidin-1-yl]-4-oxo-1-(2,4,6-trifluorophenyl)-1,4-dihydro-1,8-naphthyridine-3-carboxamide] | –
13 | 166 | – | – | O=C(NCc1c(Cl)cccc1Cl)c1cn(-c2ccc(F)cc2F)c2nc(N3CC(O)CC3=O)ccc2c1=O (centres unmarked) [compound 183] | –
14 | – | 27 | 98 | O=C(NC(CC(F)(F)F)C(F)(F)F)c1cn(-c2c(F)cc(F)cc2F)c2nc(N3C[C@@H](O)CC3=O)ccc2c1=O (mixture of isomers) [Example 606, N-[1,1,1,4,4,4-Hexafluorobutan-2-yl]-7-[(4S)-4-hydroxy-2-oxopyrrolidin-1-yl]-4-oxo-1-(2,4,6-trifluorophenyl)-1,4-dihydro-1,8-naphthyridine-3-carboxamide] | –
15 | 293 | – | – | CC[C@@H](NC(=O)c1cn(-c2ccc(F)cc2F)c2nc(N3CC(OC(=O)NC)CC3=O)ccc2c1=O)C(F)(F)F (stereo partly drawn) [Example 200, (3S)-1-[8-(2,4-Difluorophenyl)-5-oxo-6-{[(2R)-1,1,1-trifluorobutan-2-yl]carbamoyl}-5,8-dihydro-1,8-naphthyridin-2-yl]-5-oxopyrrolidin-3-yl methyl carbamate] | –
16 | 89 | – | – | CN(C)c1ccc2c(=O)c(C(=O)NCc3c(Cl)cccc3Cl)cn(-c3ccc(F)cc3F)c2n1 [Example 49, N-(2,6-Dichlorobenzyl)-1-(2,4-difluorophenyl)-7-(dimethylamino)-4-oxo-1,4-dihydro-1,8-naphthyridine-3-carboxamide] | –
17 | 131 | – | – | CO[C@@H]1CCN(c2ccc3c(=O)c(C(=O)NC(C)(C)c4c(F)cccc4F)cn(-c4ccc(F)cc4F)c3n2)C1 [Example 22, 1-(2,4-Difluorophenyl)-N-[2-(2,6-difluorophenyl)propan-2-yl]-7-[(3R)-3-methoxypyrrolidin-1-yl]-4-oxo-1,4-dihydro-1,8-naphthyridine-3-carboxamide] | –

Row | SMILES | EC50 [1] [nM] | EC50 [2] [nM] | Emax [3] [%] | Emax (read-out: Efficiency) [%]
18 | O=C(NC12CC3CC(CC(C3)C1)C2)c1cn(-c2ccc(F)cc2F)c2nc(NCC(F)F)ccc2c1=O [Example 120, 7-[(2,2-Difluoroethyl)amino]-1-(2,4-difluorophenyl)-4-oxo-N-(tricyclo[3.3.1.1^3,7]dec-1-yl)-1,4-dihydro-1,8-naphthyridine-3-carboxamide] | 62 | – | – | –
19 | O=C(N[C@@H](C1CC1)C(F)(F)F)c1cn(-c2c(F)cc(F)cc2F)c2nc(N3CC[C@@H](O)[C@H](O)C3)ccc2c1=O (single isomer, unassigned) [Example 616] | – | 37 | 90.5 | –
20 | CC[C@@H](NC(=O)c1cn(-c2c(Cl)cccc2Cl)c2nc(N3C[C@@H](O)CC3=O)ccc2c1=O)C(F)(F)F [Example 645, 1-(2,6-Dichlorophenyl)-7-[(4S)-4-hydroxy-2-oxopyrrolidin-1-yl]-4-oxo-N-[(2R)-1,1,1-trifluorobutan-2-yl]-1,4-dihydro-1,8-naphthyridine-3-carboxamide] | – | 74 | – | 83
